{"source": "paper PMC9268414", "about": "“Screening an In-House Isoquinoline Alkaloids Library for New Blockers of Voltage-Gated Na^+ Channels Using Voltage Sensor Fluorescent Probes: Hits and Biases” (Molecules, 2022)", "key": {"[1]": {"system": "NaV channels endogenously expressed in GH3b6 cells", "experiment": "FRET voltage sensor probe (VSP) assay of BTX-induced depolarization in GH3b6 cells", "type": "cell-based, rat", "settings": "for Maximum of Inhibition of BTX-evoked VSP signal / IC50: BTX 1 µM, n = 6; for Maximum of Inhibition of BTX-evoked VSP signal: % printed only; for IC50: read-out: IC50 (µM), inhibition of BTX-evoked VSP signal; for Inhibitory Effects (%) on BTX-induced VSP signal (screening): IA at 10–50 µg/mL co-incubated with 1 µM BTX"}, "hNaV1.6 channel": {"target": "T1, hNaV1.6 channel (Homo sapiens, UniProt Q9UQD0)", "T1 construct": "expressed in transfected cells", "experiment": "Automated patch-clamp, Na+ currents in HEK293-hNaV1.6 cells", "type": "cell-based", "method": "(§1) GH3b6 cells are a subclone of the GH3 pituitary cell line and were a generous gift from Dr. Françoise Macari (IGF, Montpellier, France). GH3b6 cells were cultivated from passage 14 until passage 32 at 37 °C/5% CO2 in Dubelcco’s Modified Eagle Medium (DMEM)/F12 (Lonza, Basel, Switzerland), supplemented with 10% FBS (Lonza, Basel, Switzerland), 1 mM L-glutamine, and 1 mM penicillin and streptomycin solution. For the fluorescence assay, the GH3b6 cells were seeded in black-walled, clear-bottom, 96-well, tissue culture-treated, and sterile imaging plates (Corning Hazebrouck, France), at a density of 10,000 cells per well, and incubated for 24 h before starting the experiment. The human Nav1.3 (hNav1.3) channel-expressing cell line (HEK293) used in this work was a generous gift from Massimo Mantegazza (IPMC, Nice, France). HEK293-hNaV1.3 cells were cultivated from passage 20 until passage 35 at 37 °C/5% CO2 in a DMEM high glucose medium (4.5 g/l), supplemented with 10% FBS, pyruvate, L-glutamine, and penicillin and streptomycin solution, each one at 1 mM, completed with 800 µg/mL geneticin G418. For the fluorescence assays, the cells were plated at a density of 50,000 cells per well in black-walled, clear-bottom, 96-well plates and then cultured at 37 °C and 5% CO2 for 24 h before the experiments. HEK293 stably expressing hNaV1.2 and hNaV1.6 were cultivated in the same conditions mentioned above for the HEK293-hNaV1.3 cells. For the automated patch-clamp experiments, cells were passaged from 24 to 48 h prior to the experiment and replated in the appropriate quantity to reach 50–70% confluence. For electrophysiological recordings, cells were detached with trypsin-EDTA and diluted in a culture medium. Then, the cells were centrifuged at 800 rpm for 4 min and resuspended (~300,000 cells/mL) in a patch-clamp extracellular solution.\n(§2) Whole-cell recordings were used to investigate the effects of oxostephanine, liriodenine, thalmiculine, bebeerine, and protopine on HEK293 cells stably expressing the hNav1.2, hNav1.3, and hNav1.6 channels. Automated patch-clamp recordings were performed using the SyncroPatch 384PE from Nanion (München, Germany). Chips with a single hole (n = 384, series resistance 3.93 ± 1.19 MΩ) were used for HEK293 cell recordings. Pulse generation and data collection were performed with the PatchControl384 v1.9.7 software (Nanion) and the Biomek interface (Beckman Coulter). Whole-cell recordings were conducted according to the recommended procedures of Nanion. The cells were stored in a cell hotel reservoir at 10 °C, with a shaking speed of 60 RPM. After initiating the experiment, cell catch, sealing, whole-cell formation, liquid application, recording, and data acquisition were all performed sequentially and automatically. The intracellular solution contained (in mM): 10 CsCl, 110 CsF, 10 NaCl, 10 EGTA, and 10 HEPES (pH 7.2, osmolarity 280 mOsm), and the extracellular solution contained (in mM): 60 NMDG, 80 NaCl, 4 KCl, 2 CaCl2, 1 MgCl2, 5 Glucose, and 10 HEPES (pH 7.4 (NaOH), osmolarity 280 ± 3 mOsm). Whole-cell experiments were performed at a holding potential of −100 mV at room temperature (18–22 °C). Currents were sampled at 20 kHz. For pharmacological assays, alkaloid solutions were prepared at 30 µM in the extracellular solution supplemented with 0.3% bovine serum albumin and distributed in 384-well compound plates according to a pre-established plate plan. This distribution within compound plates could not be randomized since it would then excessively complexify the methods of analyses. The working compound solution was diluted 3 times in the patch-clamp recording well by adding from 30 to 60 µL of the external solution to reach the final reported concentration and the test volume of 90 µL. The effects of IA (10 µM) or of BTX (1 µM) were measured at the end of a 10 min application time. Activation curves were built by depolarizations lasting for 2000 ms, from −130 mV to 40 mV, using 5 mV increment steps. […]"}, "human NaV1.3 channel": {"target": "human NaV1.3 channel (Homo sapiens, UniProt Q9NY46)", "sequence (Q9NY46 whole entry)": "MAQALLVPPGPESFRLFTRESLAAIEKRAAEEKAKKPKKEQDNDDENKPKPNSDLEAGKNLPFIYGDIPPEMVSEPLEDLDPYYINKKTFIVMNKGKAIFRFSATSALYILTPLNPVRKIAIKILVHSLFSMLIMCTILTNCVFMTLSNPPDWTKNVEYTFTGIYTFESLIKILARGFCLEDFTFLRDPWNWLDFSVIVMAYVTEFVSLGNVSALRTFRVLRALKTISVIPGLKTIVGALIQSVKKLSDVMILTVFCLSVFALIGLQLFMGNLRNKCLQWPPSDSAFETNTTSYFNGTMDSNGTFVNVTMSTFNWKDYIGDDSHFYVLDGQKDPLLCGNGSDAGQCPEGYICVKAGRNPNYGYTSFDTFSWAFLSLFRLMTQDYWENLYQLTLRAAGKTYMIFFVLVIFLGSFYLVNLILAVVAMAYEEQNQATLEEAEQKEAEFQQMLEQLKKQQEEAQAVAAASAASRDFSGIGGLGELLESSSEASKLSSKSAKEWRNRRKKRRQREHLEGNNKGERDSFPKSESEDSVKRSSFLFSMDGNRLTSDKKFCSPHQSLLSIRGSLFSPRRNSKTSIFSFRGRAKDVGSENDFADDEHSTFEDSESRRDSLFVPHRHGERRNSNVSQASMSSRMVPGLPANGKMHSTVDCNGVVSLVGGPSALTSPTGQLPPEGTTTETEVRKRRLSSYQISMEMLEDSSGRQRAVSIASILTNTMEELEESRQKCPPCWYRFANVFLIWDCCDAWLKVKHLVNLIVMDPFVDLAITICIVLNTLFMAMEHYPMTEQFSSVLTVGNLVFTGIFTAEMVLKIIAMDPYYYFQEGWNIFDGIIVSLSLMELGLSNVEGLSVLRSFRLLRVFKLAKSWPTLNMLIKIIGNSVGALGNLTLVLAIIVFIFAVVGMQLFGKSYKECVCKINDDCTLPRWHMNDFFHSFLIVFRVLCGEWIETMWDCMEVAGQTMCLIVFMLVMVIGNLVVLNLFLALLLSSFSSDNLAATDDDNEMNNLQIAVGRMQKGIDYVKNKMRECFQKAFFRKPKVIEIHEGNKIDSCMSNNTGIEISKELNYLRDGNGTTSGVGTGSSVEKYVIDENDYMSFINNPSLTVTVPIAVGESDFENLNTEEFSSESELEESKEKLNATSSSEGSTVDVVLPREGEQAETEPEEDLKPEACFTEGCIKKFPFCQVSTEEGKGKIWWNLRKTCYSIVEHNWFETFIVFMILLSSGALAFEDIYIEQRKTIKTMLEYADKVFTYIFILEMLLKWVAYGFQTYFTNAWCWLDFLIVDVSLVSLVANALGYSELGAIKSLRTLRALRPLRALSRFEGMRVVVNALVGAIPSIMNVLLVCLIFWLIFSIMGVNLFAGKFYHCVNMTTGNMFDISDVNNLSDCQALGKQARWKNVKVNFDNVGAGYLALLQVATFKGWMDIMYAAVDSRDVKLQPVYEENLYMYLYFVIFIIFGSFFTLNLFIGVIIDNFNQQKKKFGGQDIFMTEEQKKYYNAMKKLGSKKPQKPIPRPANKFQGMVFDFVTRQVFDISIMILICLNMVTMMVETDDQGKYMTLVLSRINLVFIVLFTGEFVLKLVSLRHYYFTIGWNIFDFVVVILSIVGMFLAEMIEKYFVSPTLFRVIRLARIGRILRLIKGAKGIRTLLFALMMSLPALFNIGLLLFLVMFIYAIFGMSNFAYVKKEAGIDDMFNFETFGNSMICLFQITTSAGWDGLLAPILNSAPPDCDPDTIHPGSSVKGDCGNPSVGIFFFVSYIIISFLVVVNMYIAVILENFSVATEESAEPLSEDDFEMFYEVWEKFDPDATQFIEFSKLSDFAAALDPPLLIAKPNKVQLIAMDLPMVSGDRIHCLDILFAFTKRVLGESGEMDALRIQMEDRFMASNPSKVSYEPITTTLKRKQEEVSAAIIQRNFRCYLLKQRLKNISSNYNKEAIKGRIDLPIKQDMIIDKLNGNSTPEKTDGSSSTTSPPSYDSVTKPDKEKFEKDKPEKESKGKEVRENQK", "experiment": "ANG-2 intracellular Na+ fluorescent assay in HEK293-hNaV1.3 cells", "type": "cell-based"}, "hNaV1.2 channel": {"target": "T2, hNaV1.2 channel (Homo sapiens, UniProt Q99250)", "T2 construct": "expressed in transfected cells", "T2 sequence (Q99250 whole entry)": "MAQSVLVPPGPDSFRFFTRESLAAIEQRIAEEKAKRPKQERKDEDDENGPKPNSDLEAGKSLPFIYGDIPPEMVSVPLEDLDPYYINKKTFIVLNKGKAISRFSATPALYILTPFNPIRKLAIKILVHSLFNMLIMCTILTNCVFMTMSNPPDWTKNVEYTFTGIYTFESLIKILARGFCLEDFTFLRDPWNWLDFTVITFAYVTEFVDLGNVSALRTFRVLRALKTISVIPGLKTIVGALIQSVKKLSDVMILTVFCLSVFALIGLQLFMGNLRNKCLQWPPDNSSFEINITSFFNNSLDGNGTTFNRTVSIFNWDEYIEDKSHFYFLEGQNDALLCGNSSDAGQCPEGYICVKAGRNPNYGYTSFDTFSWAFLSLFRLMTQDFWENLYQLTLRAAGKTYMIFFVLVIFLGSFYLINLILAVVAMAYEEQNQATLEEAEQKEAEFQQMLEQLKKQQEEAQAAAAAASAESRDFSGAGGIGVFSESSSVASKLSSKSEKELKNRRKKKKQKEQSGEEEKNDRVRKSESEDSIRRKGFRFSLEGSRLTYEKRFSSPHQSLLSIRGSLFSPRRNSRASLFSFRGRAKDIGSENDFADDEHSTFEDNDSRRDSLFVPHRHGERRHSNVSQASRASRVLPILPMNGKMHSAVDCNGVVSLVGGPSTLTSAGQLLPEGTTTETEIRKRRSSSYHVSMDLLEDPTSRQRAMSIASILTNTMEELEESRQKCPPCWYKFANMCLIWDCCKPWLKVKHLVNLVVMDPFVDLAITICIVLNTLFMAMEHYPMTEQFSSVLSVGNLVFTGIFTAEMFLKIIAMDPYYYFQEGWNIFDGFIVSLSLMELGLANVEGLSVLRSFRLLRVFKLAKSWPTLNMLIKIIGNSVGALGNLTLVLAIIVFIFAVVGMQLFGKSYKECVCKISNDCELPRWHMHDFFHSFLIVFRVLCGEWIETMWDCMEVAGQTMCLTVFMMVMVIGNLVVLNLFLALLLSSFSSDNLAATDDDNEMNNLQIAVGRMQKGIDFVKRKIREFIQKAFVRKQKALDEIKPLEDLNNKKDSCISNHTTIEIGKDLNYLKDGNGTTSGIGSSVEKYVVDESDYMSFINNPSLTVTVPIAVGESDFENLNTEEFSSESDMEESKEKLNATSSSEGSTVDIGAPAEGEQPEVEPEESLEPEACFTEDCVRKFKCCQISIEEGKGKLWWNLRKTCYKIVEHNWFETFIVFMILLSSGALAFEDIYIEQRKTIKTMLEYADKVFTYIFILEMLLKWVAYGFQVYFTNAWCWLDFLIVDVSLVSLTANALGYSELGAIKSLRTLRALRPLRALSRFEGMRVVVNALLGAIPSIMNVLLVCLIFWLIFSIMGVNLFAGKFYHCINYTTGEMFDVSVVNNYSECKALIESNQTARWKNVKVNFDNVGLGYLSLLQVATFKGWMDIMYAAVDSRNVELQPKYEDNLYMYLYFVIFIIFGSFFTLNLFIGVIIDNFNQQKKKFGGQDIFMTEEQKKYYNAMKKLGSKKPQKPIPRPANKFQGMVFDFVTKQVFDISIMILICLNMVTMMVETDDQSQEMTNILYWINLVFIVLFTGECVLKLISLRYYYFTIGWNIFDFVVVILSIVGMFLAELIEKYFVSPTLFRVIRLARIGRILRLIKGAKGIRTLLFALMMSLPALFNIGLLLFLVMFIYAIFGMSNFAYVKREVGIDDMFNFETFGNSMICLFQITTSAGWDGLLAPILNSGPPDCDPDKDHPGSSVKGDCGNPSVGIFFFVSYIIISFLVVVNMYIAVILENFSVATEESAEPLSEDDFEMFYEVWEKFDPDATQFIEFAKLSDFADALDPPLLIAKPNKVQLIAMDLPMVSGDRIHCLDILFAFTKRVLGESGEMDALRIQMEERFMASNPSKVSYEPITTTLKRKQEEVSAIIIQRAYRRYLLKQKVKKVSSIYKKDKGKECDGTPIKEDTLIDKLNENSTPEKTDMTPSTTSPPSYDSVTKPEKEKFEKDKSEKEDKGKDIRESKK", "experiment": "Automated patch-clamp, Na+ currents in HEK293-hNaV1.2 cells", "type": "cell-based", "method": "as §1, §2"}, "hNaV1.3 channel": {"target": "T3, hNaV1.3 channel (Homo sapiens, UniProt Q9NY46)", "T3 construct": "expressed in transfected cells", "T3 sequence (Q9NY46 whole entry)": "as the sequence (Q9NY46 whole entry) above", "experiment": "Automated patch-clamp, Na+ currents in HEK293-hNaV1.3 cells", "type": "cell-based", "method": "as §1, §2"}, "[2]": {"settings": "10 µM, Vm between −20 mV and 30 mV"}}, "note": "Where “and” joins values, the source holds several entries; their conditions need not be identical. Equal values may be shown once."}
{"compound": "thalmiculine [IA49]", "values": [{"measurement": "Maximum of Inhibition of BTX-evoked VSP signal", "setting": "[1]; GH3b6 cells", "result": "31.07 ± 4.04", "unit": "%"}, {"measurement": "IC50", "setting": "[1]; GH3b6 cells", "result": "0.38 ± 0.19", "unit": "µM"}, {"measurement": "Inhibitory Effects (%) on BTX-induced VSP signal (screening)", "setting": "[1]; GH3b6 cells", "result": 91.1, "unit": "%"}, {"measurement": "Effect on Na+ currents elicited by hNaV1.6", "setting": "hNaV1.6 channel; 10 µM, HEK293-hNaV1.6", "result": "no effects"}, {"measurement": "Change in V1/2 of activation and inactivation vs control", "setting": "hNaV1.6 channel; hNaV1.6, 10 µM", "result": "ns"}, {"measurement": "Inhibition of BTX-induced [Na+]i elevation (ANG-2 signal)", "setting": "human NaV1.3 channel; IA at 10 µM, BTX 3 µM, HEK293-hNaV1.3", "result": "no significant inhibitory effects"}, {"measurement": "Effect on Na+ currents elicited by hNaV1.2", "setting": "hNaV1.2 channel; 10 µM, HEK293-hNaV1.2", "result": "no effects"}, {"measurement": "Change in V1/2 of activation and inactivation vs control", "setting": "hNaV1.2 channel; hNaV1.2, 10 µM", "result": "ns"}, {"measurement": "Effect on Na+ currents elicited by hNaV1.3", "setting": "hNaV1.3 channel; 10 µM, HEK293-hNaV1.3, without BTX", "result": "no effects"}, {"measurement": "Change in V1/2 of activation and inactivation vs control", "setting": "hNaV1.3 channel; hNaV1.3, 10 µM", "result": "ns"}]}
{"compound": "Cc1c[nH]c(C)c1C(=O)OC(C)C1=CCC23OCCN(C)CC12CC(O)C12OC4(O)CCC1(C)C(CC=C32)C4", "note": "(stereo not drawn) [BTX, batrachotoxin, reference compound]", "values": [{"measurement": "EC50 of BTX-induced VSP signal ratio", "setting": "[1]; GH3b6 cells, BTX 0.01 to 3 µM, Na+ raised to 80 mM", "result": "270 ± 60", "unit": "nM"}, {"measurement": "Increase of the AUC of current traces (inactivation rate of hNaV1.3)", "setting": "hNaV1.3 channel; BTX 1 µM, data not shown", "result": 55, "unit": "fold"}]}
{"compound": "COc1cc2c3cc1Oc1cc(ccc1O)CC1c4c(cc(OC)c(O)c4Oc4ccc(cc4)CC3N(C)CC2)CCN1C", "note": "(stereo not drawn) [IA52, bebeerine]", "values": [{"measurement": "Maximum of Inhibition of BTX-evoked VSP signal", "setting": "[1]; GH3b6 cells", "result": "41.04 ± 3.44", "unit": "%"}, {"measurement": "IC50", "setting": "[1]; GH3b6 cells", "result": "0.74 ± 0.11", "unit": "µM"}, {"measurement": "Inhibitory Effects (%) on BTX-induced VSP signal (screening)", "setting": "[1]; GH3b6 cells", "result": 81.9, "unit": "%"}, {"measurement": "inhibition at 10 µM", "setting": "hNaV1.6 channel; [2]", "result": "70 to 74", "unit": "%"}, {"measurement": "inhibition at 10 µM", "setting": "hNaV1.6 channel; 10 µM, at −20 mV", "result": "74 ± 3", "unit": "%"}, {"measurement": "IC50", "setting": "hNaV1.6 channel; estimated from inhibition at 10 µM, read-out: IC50 on Na+ currents elicited by hNaV1.6", "result": "< 10000 nM and > 10000 nM"}, {"measurement": "Change in V1/2 of activation and inactivation vs control", "setting": "hNaV1.6 channel; hNaV1.6, 10 µM", "result": "no significant change"}, {"measurement": "Activation Slope (±SEM)", "setting": "hNaV1.6 channel; hNaV1.6, 10 µM bebeerine", "result": "7.0 ± 0.3 ^3"}, {"measurement": "Activation V1/2 (±SEM, mV)", "setting": "hNaV1.6 channel; hNaV1.6, 10 µM bebeerine", "result": "−22.1 ± 0.7 (n = 32) mV"}, {"measurement": "Inactivation Slope (±SEM)", "setting": "hNaV1.6 channel; hNaV1.6, 10 µM bebeerine", "result": "−9.0 ± 0.3 ^6"}, {"measurement": "Inactivation V1/2 (±SEM, mV)", "setting": "hNaV1.6 channel; hNaV1.6, 10 µM bebeerine", "result": "−60.2 ± 0.7 (n = 24) mV"}, {"measurement": "inhibition at 10 µM", "setting": "human NaV1.3 channel; IA at 10 µM, BTX 3 µM, HEK293-hNaV1.3, read-out: Inhibition of BTX-induced [Na+]i elevation (ANG-2 signal)", "result": "18 ± 2", "unit": "%"}, {"measurement": "inhibition at 10 µM", "setting": "hNaV1.2 channel; [2]", "result": "42 to 50", "unit": "%"}, {"measurement": "IC50", "setting": "hNaV1.2 channel; estimated from inhibition at 10 µM, read-out: IC50 on Na+ currents elicited by hNaV1.2", "result": "< 10000 nM and > 10000 nM"}, {"measurement": "Change in V1/2 of activation and inactivation vs control", "setting": "hNaV1.2 channel; hNaV1.2, 10 µM", "result": "no significant change"}, {"measurement": "Activation Slope (±SEM)", "setting": "hNaV1.2 channel; hNaV1.2, 10 µM bebeerine", "result": "5.8 ± 0.3 ^1"}, {"measurement": "Activation V1/2 (±SEM, mV)", "setting": "hNaV1.2 channel; hNaV1.2, 10 µM bebeerine", "result": "−29.1 ± 1.1 (n = 36) mV"}, {"measurement": "Inactivation Slope (±SEM)", "setting": "hNaV1.2 channel; hNaV1.2, 10 µM bebeerine", "result": "−8.5 ± 0.3 ^4"}, {"measurement": "Inactivation V1/2 (±SEM, mV)", "setting": "hNaV1.2 channel; hNaV1.2, 10 µM bebeerine", "result": "−62.3 ± 1.1 (n = 21) mV"}, {"measurement": "inhibition at 10 µM", "setting": "hNaV1.3 channel; [2]", "result": "60 to 64", "unit": "%"}, {"measurement": "inhibition at 10 µM", "setting": "hNaV1.3 channel; 10 µM, at −15 mV", "result": "64 ± 4", "unit": "%"}, {"measurement": "Shift in V1/2 activation vs control", "setting": "hNaV1.3 channel; hNaV1.3, 10 µM", "result": "−3.6 ± 1.0"}, {"measurement": "Activation Slope (±SEM)", "setting": "hNaV1.3 channel; hNaV1.3, 10 µM bebeerine", "result": "6.4 ± 0.3 ^2"}, {"measurement": "Activation V1/2 (±SEM, mV)", "setting": "hNaV1.3 channel; hNaV1.3, 10 µM bebeerine", "result": "−26.9 ± 0.7 (n = 51) mV"}, {"measurement": "Inactivation Slope (±SEM)", "setting": "hNaV1.3 channel; hNaV1.3, 10 µM bebeerine", "result": "−8.9 ± 0.3 ^5"}, {"measurement": "Inactivation V1/2 (±SEM, mV)", "setting": "hNaV1.3 channel; hNaV1.3, 10 µM bebeerine", "result": "−60.2 ± 0.9 (n = 26) mV"}]}
{"compound": "COc1ccc2cc1-c1cc(ccc1O)C[C@H]1c3cc4c(cc3CCN1C)Oc1c(OC)cc3c(c1O4)[C@H](C2)N(C)CC3", "note": "[IA31, tiliacorinine]", "values": [{"measurement": "Inhibitory Effects (%) on BTX-induced VSP signal (screening)", "setting": "[1]; GH3b6 cells", "result": 92.8, "unit": "%"}]}
{"compound": "NC1=N[C@H](O)[C@H]2[C@H]3O[C@]4(O)O[C@@H]([C@@H](O)[C@@]2(N1)[C@@H]4O)[C@]3(O)CO", "note": "[TTX, tetrodotoxin, reference compound]", "values": [{"measurement": "Effect on VSP fluorescence emission ratio induced by BTX", "setting": "[1]", "result": "fully abolished"}, {"measurement": "IC50 of TTX on VSP signal ratio induced by BTX", "setting": "[1]", "result": "8.58 ± 1.67", "unit": "nM"}, {"measurement": "Inhibition of BTX-induced ANG-2 fluorescence ratio", "setting": "human NaV1.3 channel", "result": "92 ± 5", "unit": "%"}]}
